Data reported in the supplement of paper PMC8671470.

test system: BV-173; assay: cell viability (% survival relative to DMSO control); higher = less cytotoxic; conditions: drug1 concentration 5000 nM; drug2 concentration 5 nM; 72 h
Description: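 8x8 drug-combination matrices (0–5000 nM; rosiglitazone and lestaurtinib 0–1000 nM) were run in BV-173 cells for 72 h with CellTiter-Glo read-out. Survival is normalised to DMSO and 10 µM bortezomib and clipped at 100%.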

For `CC(C)c1onc(-c2c(Cl)cccc2Cl)c1COc1ccc(/C=C/c2cccc(C(=O)O)c2)c(Cl)c1` [GW4064] + Cn1cc(-c2ccncc2)c(-c2ccc(OCc3ccc4ccccc4n3)cc2)n1 [PF-02545920], which cell viability is on record?
The cell viability was greater than 100%.

same assay, conditions: drug1 concentration 5000 nM; drug2 concentration 10 nM; 72 h

How did the cell viability turn out when `O=C(C1CC1)N1CC[C@@H](C=C2NNC(=O)N2c2ccc(-c3ccc4occc4c3)cc2)C1` + CS(=O)(=O)N1CCN(Cc2cc3nc(-c4cccc5[nH]ncc45)nc(N4CCOCC4)c3s2)CC1 [Pictilisib] was run?
Its cell viability is 92.2%.

For `O=C(C1CC1)N1CC[C@@H](C=C2NNC(=O)N2c2ccc(-c3ccc4occc4c3)cc2)C1` + C[C@H](NC(=O)c1sccc1OCc1ccc(Cl)cc1)c1ccccc1 [as1949490], which cell viability is on record?
Its cell viability is greater than 100%.

`O=C(C1CC1)N1CC[C@@H](C=C2NNC(=O)N2c2ccc(-c3ccc4occc4c3)cc2)C1` + O=C(c1c2ccccc2cc2ccccc12)N1CCC(N2CCC[C@@H](C(=O)N3CCOCC3)C2)CC1 [CP-640186] was tested. Which cell viability did it give?
The cell viability was 58.3%.

With `CC(C)c1onc(-c2c(Cl)cccc2Cl)c1COc1ccc(/C=C/c2cccc(C(=O)O)c2)c(Cl)c1` [GW4064] + Cn1cc(-c2ccncc2)c(-c2ccc(OCc3ccc4ccccc4n3)cc2)n1 [PF-02545920] as the compound, how does the cell viability read?
Its cell viability is 98%.

same assay, conditions: drug1 concentration 5000 nM; drug2 concentration 50 nM; 72 h

`O=C(C1CC1)N1CC[C@@H](C=C2NNC(=O)N2c2ccc(-c3ccc4occc4c3)cc2)C1` + CS(=O)(=O)N1CCN(Cc2cc3nc(-c4cccc5[nH]ncc45)nc(N4CCOCC4)c3s2)CC1 [Pictilisib] was tested. Which cell viability did it give?
Its cell viability is 59.7%.

For `O=C(C1CC1)N1CC[C@@H](C=C2NNC(=O)N2c2ccc(-c3ccc4occc4c3)cc2)C1` + C[C@H](NC(=O)c1sccc1OCc1ccc(Cl)cc1)c1ccccc1 [as1949490], which cell viability is on record?
The cell viability was 96.7%.

For `O=C(C1CC1)N1CC[C@@H](C=C2NNC(=O)N2c2ccc(-c3ccc4occc4c3)cc2)C1` + O=C(c1c2ccccc2cc2ccccc12)N1CCC(N2CCC[C@@H](C(=O)N3CCOCC3)C2)CC1 [CP-640186], which cell viability is on record?
Its cell viability is 97.1%.

How did the cell viability turn out when `CC(C)c1onc(-c2c(Cl)cccc2Cl)c1COc1ccc(/C=C/c2cccc(C(=O)O)c2)c(Cl)c1` [GW4064] + Cn1cc(-c2ccncc2)c(-c2ccc(OCc3ccc4ccccc4n3)cc2)n1 [PF-02545920] was run?
Its cell viability is 74%.

same assay, conditions: drug1 concentration 5000 nM; drug2 concentration 100 nM; 72 h

Which cell viability does the source give for `O=C(C1CC1)N1CC[C@@H](C=C2NNC(=O)N2c2ccc(-c3ccc4occc4c3)cc2)C1` + CS(=O)(=O)N1CCN(Cc2cc3nc(-c4cccc5[nH]ncc45)nc(N4CCOCC4)c3s2)CC1 [Pictilisib] here?
Its cell viability is greater than 100%.

`O=C(C1CC1)N1CC[C@@H](C=C2NNC(=O)N2c2ccc(-c3ccc4occc4c3)cc2)C1` + C[C@H](NC(=O)c1sccc1OCc1ccc(Cl)cc1)c1ccccc1 [as1949490] was tested. Which cell viability did it give?
Its cell viability is 84.7%.

How did the cell viability turn out when `O=C(C1CC1)N1CC[C@@H](C=C2NNC(=O)N2c2ccc(-c3ccc4occc4c3)cc2)C1` + O=C(c1c2ccccc2cc2ccccc12)N1CCC(N2CCC[C@@H](C(=O)N3CCOCC3)C2)CC1 [CP-640186] was run?
The cell viability was greater than 100%.

Which cell viability does the source give for `CC(C)c1onc(-c2c(Cl)cccc2Cl)c1COc1ccc(/C=C/c2cccc(C(=O)O)c2)c(Cl)c1` [GW4064] + Cn1cc(-c2ccncc2)c(-c2ccc(OCc3ccc4ccccc4n3)cc2)n1 [PF-02545920] here?
Its cell viability is 97%.

same assay, conditions: drug1 concentration 5000 nM; drug2 concentration 500 nM; 72 h

How did the cell viability turn out when `O=C(C1CC1)N1CC[C@@H](C=C2NNC(=O)N2c2ccc(-c3ccc4occc4c3)cc2)C1` + CS(=O)(=O)N1CCN(Cc2cc3nc(-c4cccc5[nH]ncc45)nc(N4CCOCC4)c3s2)CC1 [Pictilisib] was run?
Its cell viability is 89.3%.

Which cell viability does the source give for `O=C(C1CC1)N1CC[C@@H](C=C2NNC(=O)N2c2ccc(-c3ccc4occc4c3)cc2)C1` + C[C@H](NC(=O)c1sccc1OCc1ccc(Cl)cc1)c1ccccc1 [as1949490] here?
Its cell viability is 77.2%.

For `O=C(C1CC1)N1CC[C@@H](C=C2NNC(=O)N2c2ccc(-c3ccc4occc4c3)cc2)C1` + O=C(c1c2ccccc2cc2ccccc12)N1CCC(N2CCC[C@@H](C(=O)N3CCOCC3)C2)CC1 [CP-640186], which cell viability is on record?
The cell viability was 96.6%.

How did the cell viability turn out when `CC(C)c1onc(-c2c(Cl)cccc2Cl)c1COc1ccc(/C=C/c2cccc(C(=O)O)c2)c(Cl)c1` [GW4064] + Cn1cc(-c2ccncc2)c(-c2ccc(OCc3ccc4ccccc4n3)cc2)n1 [PF-02545920] was run?
Its cell viability is greater than 100%.

same assay, conditions: drug1 concentration 5000 nM; drug2 concentration 1000 nM; 72 h

Which cell viability does the source give for `O=C(C1CC1)N1CC[C@@H](C=C2NNC(=O)N2c2ccc(-c3ccc4occc4c3)cc2)C1` + CS(=O)(=O)N1CCN(Cc2cc3nc(-c4cccc5[nH]ncc45)nc(N4CCOCC4)c3s2)CC1 [Pictilisib] here?
Its cell viability is 78.4%.

How did the cell viability turn out when `O=C(C1CC1)N1CC[C@@H](C=C2NNC(=O)N2c2ccc(-c3ccc4occc4c3)cc2)C1` + C[C@H](NC(=O)c1sccc1OCc1ccc(Cl)cc1)c1ccccc1 [as1949490] was run?
The cell viability was 58.5%.

`O=C(C1CC1)N1CC[C@@H](C=C2NNC(=O)N2c2ccc(-c3ccc4occc4c3)cc2)C1` + O=C(c1c2ccccc2cc2ccccc12)N1CCC(N2CCC[C@@H](C(=O)N3CCOCC3)C2)CC1 [CP-640186] was tested. Which cell viability did it give?
The cell viability was greater than 100%.

For `CC(C)c1onc(-c2c(Cl)cccc2Cl)c1COc1ccc(/C=C/c2cccc(C(=O)O)c2)c(Cl)c1` [GW4064] + Cn1cc(-c2ccncc2)c(-c2ccc(OCc3ccc4ccccc4n3)cc2)n1 [PF-02545920], which cell viability is on record?
The cell viability was 81.7%.

same assay, conditions: drug1 concentration 5000 nM; drug2 concentration 5000 nM; 72 h

How did the cell viability turn out when `O=C(C1CC1)N1CC[C@@H](C=C2NNC(=O)N2c2ccc(-c3ccc4occc4c3)cc2)C1` + CS(=O)(=O)N1CCN(Cc2cc3nc(-c4cccc5[nH]ncc45)nc(N4CCOCC4)c3s2)CC1 [Pictilisib] was run?
Its cell viability is greater than 100%.

With `O=C(C1CC1)N1CC[C@@H](C=C2NNC(=O)N2c2ccc(-c3ccc4occc4c3)cc2)C1` + C[C@H](NC(=O)c1sccc1OCc1ccc(Cl)cc1)c1ccccc1 [as1949490] as the compound, how does the cell viability read?
The cell viability was 0%.

With `O=C(C1CC1)N1CC[C@@H](C=C2NNC(=O)N2c2ccc(-c3ccc4occc4c3)cc2)C1` + O=C(c1c2ccccc2cc2ccccc12)N1CCC(N2CCC[C@@H](C(=O)N3CCOCC3)C2)CC1 [CP-640186] as the compound, how does the cell viability read?
Its cell viability is greater than 100%.

`CC(C)c1onc(-c2c(Cl)cccc2Cl)c1COc1ccc(/C=C/c2cccc(C(=O)O)c2)c(Cl)c1` [GW4064] + Cn1cc(-c2ccncc2)c(-c2ccc(OCc3ccc4ccccc4n3)cc2)n1 [PF-02545920] was tested. Which cell viability did it give?
Its cell viability is greater than 100%.

test system: Mono-Mac-6; assay: as above; conditions: drug1 concentration 5 nM; drug2 concentration 5 nM; 72 h
Description: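 8x8 drug-combination matrices (0–5000 nM; rosiglitazone and lestaurtinib 0–1000 nM) were run in Mono-Mac-6 cells for 72 h with CellTiter-Glo read-out. Survival is normalised to DMSO and 10 µM bortezomib and clipped at 100%.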

How did the cell viability turn out when `O=C(C1CC1)N1CC[C@@H](C=C2NNC(=O)N2c2ccc(-c3ccc4occc4c3)cc2)C1` + CS(=O)(=O)N1CCN(Cc2cc3nc(-c4cccc5[nH]ncc45)nc(N4CCOCC4)c3s2)CC1 [Pictilisib] was run?
Its cell viability is greater than 100%.

`O=C(C1CC1)N1CC[C@@H](C=C2NNC(=O)N2c2ccc(-c3ccc4occc4c3)cc2)C1` + C[C@H](NC(=O)c1sccc1OCc1ccc(Cl)cc1)c1ccccc1 [as1949490] was tested. Which cell viability did it give?
The cell viability was 77.9%.

With `O=C(C1CC1)N1CC[C@@H](C=C2NNC(=O)N2c2ccc(-c3ccc4occc4c3)cc2)C1` + O=C(c1c2ccccc2cc2ccccc12)N1CCC(N2CCC[C@@H](C(=O)N3CCOCC3)C2)CC1 [CP-640186] as the compound, how does the cell viability read?
Its cell viability is 77.8%.

How did the cell viability turn out when `CC(C)c1onc(-c2c(Cl)cccc2Cl)c1COc1ccc(/C=C/c2cccc(C(=O)O)c2)c(Cl)c1` [GW4064] + Cn1cc(-c2ccncc2)c(-c2ccc(OCc3ccc4ccccc4n3)cc2)n1 [PF-02545920] was run?
The cell viability was greater than 100%.

same assay, conditions: drug1 concentration 5 nM; drug2 concentration 10 nM; 72 h

`O=C(C1CC1)N1CC[C@@H](C=C2NNC(=O)N2c2ccc(-c3ccc4occc4c3)cc2)C1` + CS(=O)(=O)N1CCN(Cc2cc3nc(-c4cccc5[nH]ncc45)nc(N4CCOCC4)c3s2)CC1 [Pictilisib] was tested. Which cell viability did it give?
The cell viability was 89.9%.

`O=C(C1CC1)N1CC[C@@H](C=C2NNC(=O)N2c2ccc(-c3ccc4occc4c3)cc2)C1` + C[C@H](NC(=O)c1sccc1OCc1ccc(Cl)cc1)c1ccccc1 [as1949490] was tested. Which cell viability did it give?
Its cell viability is greater than 100%.

Which cell viability does the source give for `O=C(C1CC1)N1CC[C@@H](C=C2NNC(=O)N2c2ccc(-c3ccc4occc4c3)cc2)C1` + O=C(c1c2ccccc2cc2ccccc12)N1CCC(N2CCC[C@@H](C(=O)N3CCOCC3)C2)CC1 [CP-640186] here?
Its cell viability is greater than 100%.

Which cell viability does the source give for `CC(C)c1onc(-c2c(Cl)cccc2Cl)c1COc1ccc(/C=C/c2cccc(C(=O)O)c2)c(Cl)c1` [GW4064] + Cn1cc(-c2ccncc2)c(-c2ccc(OCc3ccc4ccccc4n3)cc2)n1 [PF-02545920] here?
The cell viability was 92.5%.

same assay, conditions: drug1 concentration 5 nM; drug2 concentration 50 nM; 72 h

For `O=C(C1CC1)N1CC[C@@H](C=C2NNC(=O)N2c2ccc(-c3ccc4occc4c3)cc2)C1` + CS(=O)(=O)N1CCN(Cc2cc3nc(-c4cccc5[nH]ncc45)nc(N4CCOCC4)c3s2)CC1 [Pictilisib], which cell viability is on record?
The cell viability was 80.5%.

`O=C(C1CC1)N1CC[C@@H](C=C2NNC(=O)N2c2ccc(-c3ccc4occc4c3)cc2)C1` + C[C@H](NC(=O)c1sccc1OCc1ccc(Cl)cc1)c1ccccc1 [as1949490] was tested. Which cell viability did it give?
The cell viability was greater than 100%.

For `O=C(C1CC1)N1CC[C@@H](C=C2NNC(=O)N2c2ccc(-c3ccc4occc4c3)cc2)C1` + O=C(c1c2ccccc2cc2ccccc12)N1CCC(N2CCC[C@@H](C(=O)N3CCOCC3)C2)CC1 [CP-640186], which cell viability is on record?
Its cell viability is 99.3%.

With `CC(C)c1onc(-c2c(Cl)cccc2Cl)c1COc1ccc(/C=C/c2cccc(C(=O)O)c2)c(Cl)c1` [GW4064] + Cn1cc(-c2ccncc2)c(-c2ccc(OCc3ccc4ccccc4n3)cc2)n1 [PF-02545920] as the compound, how does the cell viability read?
Its cell viability is greater than 100%.
